For data set [1], the target named is T1, 5-HT1A receptor (Homo sapiens, UniProt P08908).
T1 sequence (P08908 1-422): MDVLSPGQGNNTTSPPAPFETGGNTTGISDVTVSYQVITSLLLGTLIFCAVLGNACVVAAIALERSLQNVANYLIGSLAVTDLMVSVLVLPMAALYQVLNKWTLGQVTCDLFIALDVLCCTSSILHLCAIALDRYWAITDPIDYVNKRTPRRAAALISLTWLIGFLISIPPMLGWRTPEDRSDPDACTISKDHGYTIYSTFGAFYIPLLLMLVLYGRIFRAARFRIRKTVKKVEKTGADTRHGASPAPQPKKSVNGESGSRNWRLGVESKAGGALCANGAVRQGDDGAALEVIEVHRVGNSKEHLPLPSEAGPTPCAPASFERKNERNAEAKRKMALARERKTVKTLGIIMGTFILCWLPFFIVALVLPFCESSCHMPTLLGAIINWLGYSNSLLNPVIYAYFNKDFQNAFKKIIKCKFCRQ
Nature of the data set: cAMP accumulation assay, 5-HT1A function. Format: cell-based. Conditions: for EC50: cells marked EC50 (agonist); for Emax: in brackets after EC50 or IC50, read-out: 5-HT1A Function cAMP (Emax); for IC50: cells marked IC50 (antagonist), read-out: 5-HT1A Function cAMP IC50.
Source text: (§1) The agonist or antagonist activity at 5-HT1A receptors was established by using two different assays. […] Agonists produce an increase in binding whereas antagonists produce no increase but rather reverse the effects of the standard agonist 8-OH-DPAT. The test compound's maximum stimulatory effect is represented as the Emax, while its potency is defined by the EC50. The test compound's maximum inhibitory effect is represented as the Imax, while its potency is defined by the IC50. The second assay measured cAMP accumulation upon binding of the ligand to the 5-HT1A receptor. […] The test compound's maximum stimulatory or inhibitory effect is represented as the Emax while its potency is defined by either IC50 for an antagonist or EC50 for an agonist. [^3H]-8-OH-DPAT was used to determine maximum agonist or antagonist response in both functional assays.

Data set [2] concerns the target T1, 5-HT1A receptor. Nature of the data set: 5-HT1A receptor affinity: displacement of [3H] 8-OH-DPAT. Format: binding. Also noted: expressed in transfected cells. Conditions: displacement of [3H] 8-OH-DPAT; CHO cells stably transfected with human 5-HT1A receptors; read-out: 5-HT1A Receptor Affinity Ki.
The target of data set [3] is T2, cloned human 5-HT1A receptors (Homo sapiens, UniProt P08908).
T2 construct: expressed in transfected cells
T2 sequence (P08908 1-422): T1 sequence (P08908 1-422)
Nature of the data set: 35S-GTPγS binding assay, 5-HT1A function. The format is biochemical. The note with it: for EC50: agonist potency; for IC50: antagonist potency, reversal of 8-OH-DPAT, read-out: 5-HT1A Function GTPγS IC50.
Source text: as §1

For another data set, the target named is T3, serotonin transporter (Rattus norvegicus, UniProt P31652).
T3 construct: displace ^3H-paroxetine from male rat cortical membranes; from tissue; host or cells: male rat cortical membranes
T3 sequence (P31652 whole entry): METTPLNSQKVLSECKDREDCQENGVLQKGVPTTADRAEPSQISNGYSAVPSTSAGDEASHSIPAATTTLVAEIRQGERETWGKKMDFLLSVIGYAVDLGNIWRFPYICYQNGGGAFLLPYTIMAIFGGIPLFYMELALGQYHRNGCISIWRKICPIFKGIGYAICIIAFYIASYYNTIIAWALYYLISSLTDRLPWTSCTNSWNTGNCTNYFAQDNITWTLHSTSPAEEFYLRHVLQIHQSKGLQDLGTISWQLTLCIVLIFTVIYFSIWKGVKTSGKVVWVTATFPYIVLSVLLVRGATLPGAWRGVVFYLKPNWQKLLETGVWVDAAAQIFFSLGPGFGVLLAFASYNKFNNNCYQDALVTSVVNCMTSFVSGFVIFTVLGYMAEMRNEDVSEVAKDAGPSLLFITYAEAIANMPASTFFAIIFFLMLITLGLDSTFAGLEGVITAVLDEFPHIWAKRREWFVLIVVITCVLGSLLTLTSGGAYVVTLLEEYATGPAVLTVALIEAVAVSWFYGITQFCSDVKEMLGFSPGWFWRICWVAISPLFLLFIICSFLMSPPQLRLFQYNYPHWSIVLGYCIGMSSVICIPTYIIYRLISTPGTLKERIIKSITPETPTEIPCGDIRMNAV
Nature of the data set: 5-HT transporter affinity: displacement of 3H-paroxetine from male rat cortical membranes. Format: binding. Conditions: displacement of 3H-paroxetine; male rat cortical membranes; read-out: 5-HT Transporter Affinity Ki.

Setting [4] is: maximum inhibitory effect, in brackets after IC50, read-out: 5-HT1A Function GTPγS (Imax).
Setting [5] is: maximum stimulatory effect, in brackets after EC50, read-out: 5-HT1A Function GTPγS (Emax).

These results are taken from patent US20050032873A1, “3-Amino chroman and 2-amino tetralin derivatives” (Wyeth, priority 2003, published 2005).

Read-outs that look alike come from different tables or passages of the source.

The molecule `NC(=O)c1cccc2c1CC(N(CCCc1c[nH]c3ccc(F)cc13)C1CCC1)CO2` (stereo not drawn) [Compound 134, 3-{cyclobutyl[3-(5-fluoro-1H-indol-3-yl)propyl]amino}chromane-5-carboxamide] yielded a melting point of 102 to 105 °C. Besides, on 5-HT1A receptor [1], a half-maximal effect (EC50) was put at 19.2 nM and the Emax is 81%. On 5-HT1A receptor [2], the Ki is 1.75 nM. In data set [3], the midpoint of the response, the EC50, lay at 21.8 nM and the IC50 is 184 nM. Besides, the Emax in data set [3] (setting [4]) amounted to 69%. Moreover, in data set [3] (setting [5]), the Emax is 28%. The Ki at serotonin transporter worked out at 8.67 nM.

For the molecule `COc1cccc2c(CCCNC3COc4c(F)ccc(C(N)=O)c4C3)coc12` (stereo not drawn) [Compound 161, 8-fluoro-3-{[3-(7-methoxy-1-benzofuran-3-yl)propyl]amino}chromane-5-carboxamide], the melting point fell in the range of 163 to 166 °C. On 5-HT1A receptor [1], the half-inhibitory concentration (IC50) is 607 nM and the Emax was 0%. The Ki on 5-HT1A receptor [2] turned out to be 43.5 nM. Further, the IC50 in data set [3] was 3000 nM. Further, the Emax in data set [3] (setting [4]) came out at 100%. Moreover, on serotonin transporter, the Ki turned out to be 234 nM.

Consider `NC(=O)c1cccc2c1CC(NCCCc1c[nH]c3ccc(F)cc13)CO2` (stereo not drawn) [Compound 133, 3-{[3-(5-fluoro-1H-indol-3-yl)propyl]amino}chromane-5-carboxamide], for which the melting point fell in the range of 153 to 155 °C. In addition, on 5-HT1A receptor [1], the EC50 is 128 nM and the Emax worked out at 84%. Further, the Ki on 5-HT1A receptor [2] was determined as 65.1 nM. In data set [3], this molecule had an EC50 of 3000 nM. Besides, the Emax in data set [3] (setting [5]) is 100%. The inhibitory constant (Ki) on serotonin transporter came to 23.6 nM.

`COc1cccc2c(CCCCNC3COc4c(F)ccc(C(N)=O)c4C3)coc12` (stereo not drawn) [Compound 167, 8-fluoro-3-{[4-(7-methoxy-1-benzofuran-3-yl)butyl]amino}chromane-5-carboxamide]: the melting point was 138 to 141 °C. For the same molecule, at 5-HT1A receptor [1], the half-inhibitory concentration (IC50) was 136 nM and the Emax came to 0%. On 5-HT1A receptor [2], the inhibition constant (Ki) came out at 31.2 nM. In addition, the IC50 in data set [3] was 1820 nM. In addition, the Emax in data set [3] (setting [4]) is 100%. Further, the Ki on serotonin transporter is 44.9 nM.
